The target of series [1] is T1, recombinant human plasminogen activator inhibitor-1 (PAI-1) (Homo sapiens, UniProt P05121).
T1 construct: purchased Molecular Innovations, Royal Oak, Mich
Description: Modification of the Primary Screen for the PAI-1 Inhibition (IC50). The class given is biochemical. The method, then:
Test compounds are dissolved in DMSO at a final concentration of 10 mM, then diluted 100× in physiologic buffer. The inhibitory assay is initiated by the addition of the test compound (1-100 μM final concentration, maximum DMSO concentration of 0.2%) in a pH 6.6 buffer containing 140 nM recombinant human plasminogen activator inhibitor-1 (PAI-1; Molecular Innovations, Royal Oak, Mich.). Following a 1 hour incubation at room temperature, 70 nM of recombinant human tissue plasminogen activator (tPA) is added, and the combination of the test compound, PAI-1 and tPA is incubated for an additional 30 minutes. Following the second incubation, Spectrozyme-tPA (American Diagnostica, Greenwich, Conn.), a chromogenic substrate for tPA, is added and absorbance read at 405 nm at 0 and 60 minutes. Relative PAI-1 inhibition is equal to the residual tPA activity in the presence of the test compound and PAI-1. Control treatments include the complete inhibition of tPA by PAI-1 at the molar ratio employed (2:1), and the absence of any effect of the test compound on tPA alone.

The target in series [2] is T1, recombinant human plasminogen activator inhibitor-1 (PAI-1). Kind of series: Primary Screen for the PAI-1 Inhibition. The class given is biochemical. The gist of the method:
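Compound (1-100 μM final, ≤0.2% DMSO) was preincubated for 1 h at room temperature with 140 nM recombinant human PAI-1 at pH 6.6. tPA was then added at 70 nM for 30 min. Residual tPA activity was measured with Spectrozyme-tPA (A405 at 0 and 60 min) and taken as relative PAI-1 inhibition.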

In a further series the target is human PAI-1 (Homo sapiens, UniProt P05121). Kind of series: Assay for Determining IC50 of Inhibition of PAI-1 (Antibody Assay). As to conditions: active PAI-1 bound to tPA-coated plate. Type of series: biochemical. The method, then:
This assay is based upon the non-SDS dissociable interaction between tPA and active PAI-1. Assay plates are initially coated with human tPA (10 μg/ml). The test compounds are dissolved in DMSO at 10 mM, then diluted with physiologic buffer (pH 7.5) to a final concentration of 1-50 μM. The test compounds are incubated with human PAI-1 (50 ng/ml) for 15 minutes at room temperature. The tPA-coated plate is washed with a solution of 0.05% Tween 20 and 0.1% BSA, then the plate is blocked with a solution of 3% BSA. An aliquot of the test compound/PAI-1 solution is then added to the tPA-coated plate, incubated at room temperature for 1 hour, and washed. Active PAI-1 bound to the plate is assessed by adding an aliquot of a 1:1000 dilution of the 33B8 monoclonal antibody against human PAI-1, and incubating the plate at room temperature for 1 hour (Molecular Innovations, Royal Oak, Mich. The plate is again washed, and a solution of goat anti-mouse IgG-alkaline phosphatase conjugate is added at a 1:50,000 dilution in goat serum. The plate is incubated 30 minutes at room temperature, washed, and a solution of alkaline phosphatase substrate is added. The plate is incubated 45 minutes at room temperature, and color development is determined at OD405nm. The quantitation of active PAI-1 bound to tPA at varying concentrations of the test compound is used to determine the IC50. Results are analyzed using a logarithmic best-fit equation. The assay sensitivity is 5 ng/ml of human PAI-1 as determined from a standard curve ranging from 0-100 ng/ml.

T1 sequence (P05121 24-402): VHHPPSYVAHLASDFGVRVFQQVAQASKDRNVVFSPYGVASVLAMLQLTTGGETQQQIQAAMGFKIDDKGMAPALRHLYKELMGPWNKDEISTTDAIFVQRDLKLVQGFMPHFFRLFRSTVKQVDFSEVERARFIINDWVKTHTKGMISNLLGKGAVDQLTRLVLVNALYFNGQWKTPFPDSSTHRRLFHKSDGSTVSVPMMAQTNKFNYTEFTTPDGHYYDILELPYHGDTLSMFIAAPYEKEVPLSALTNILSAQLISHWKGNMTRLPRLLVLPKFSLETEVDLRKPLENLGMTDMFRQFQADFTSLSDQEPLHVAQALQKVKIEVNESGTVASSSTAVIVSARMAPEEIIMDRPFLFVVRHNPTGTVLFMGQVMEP
human PAI-1, sequence (P05121 24-402): as above

For the compound `O=C(NCc1ccc2c(Br)c(OC(Cc3ccccc3)C(=O)O)ccc2c1)c1ccc(Oc2cc(Cl)cc(Cl)c2)o1` (centres unmarked) [Example 53, 2-[1-Bromo-6-({[5-(3,5-dichloro-phenoxy)-furan-2-carbonyl]-amino}-methyl)-naphthalen-2-yloxy]-3-phenyl-propionic acid], the melting point is 86 to 100 °C. For the same compound, the IC50 in series [1] came to 8.7 µM. The inhibition at 25 µM in series [2] (25 μM test compound, read-out: % Inhib. 25 μM) is 35%. The inhibition at 100 µM in series [2] (100 μM test compound, read-out: % Inhib. 100 μM) was 86%. On human PAI-1, this compound had an IC50 of 8.12 µM.

As usually defined, the IC50 is the point on the concentration scale where inhibition reaches its midpoint. What is called melting point is the temperature, or range, at which the solid turns liquid.
